For 28 compounds, IC50 results are on record in patent US12286428B2 (BRISTOL-MYERS SQUIBB COMPANY, priority 2019, dated 2025).

The target of the first test is T1, IRAK4 (Homo sapiens, UniProt Q9NWZ3).
T1 sequence (Q9NWZ3 1-460): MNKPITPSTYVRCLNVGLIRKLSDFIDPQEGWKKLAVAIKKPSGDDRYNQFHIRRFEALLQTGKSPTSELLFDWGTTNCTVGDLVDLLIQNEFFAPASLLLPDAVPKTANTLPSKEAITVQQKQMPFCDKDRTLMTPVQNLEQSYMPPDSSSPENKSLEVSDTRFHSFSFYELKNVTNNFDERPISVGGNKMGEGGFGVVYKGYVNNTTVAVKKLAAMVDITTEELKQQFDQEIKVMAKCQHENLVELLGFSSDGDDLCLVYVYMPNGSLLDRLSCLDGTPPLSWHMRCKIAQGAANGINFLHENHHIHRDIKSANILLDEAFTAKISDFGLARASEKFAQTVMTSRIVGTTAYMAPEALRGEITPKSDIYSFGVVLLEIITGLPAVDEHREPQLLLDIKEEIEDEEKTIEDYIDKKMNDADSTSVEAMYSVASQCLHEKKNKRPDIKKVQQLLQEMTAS
As to the kind of experiment: IRAK4 Inhibition Assay. The following applies: ATP 500 μM; FL-IPTSPITTTYFFFKKK peptide […]; IRAK4 0.6 nM; 60 min room temperature; Caliper LABCHIP 3000. Format: biochemical. The protocol: The assays were performed in U-bottom 384-well plates. […] The reaction was initiated by the combination of IRAK4 with substrates and test compounds. The reaction mixture was incubated at room temperature for 60 min. and terminated by adding 45 μL of 35 mM EDTA to each sample. The reaction mixture was analyzed on the Caliper LABCHIP® 3000 (Caliper, Hopkinton, MA) by electrophoretic separation of the fluorescent substrate and phosphorylated product. […] The final concentrations of reagents in the assays are ATP, 500 μM; FL-[…] peptide 1.5 μM; IRAK4, 0.6 nM; and DMSO, 1.6%.
Turning to “1-(((2S,3S,4S)-3-ethyl-4-fluoro-5-oxotetrahydrofuran-2-yl)methoxy)-8-methyl-8,9-dihydrofuro[2,3-h]isoquinoline-6-carboxamide [Example 51]”, the IC50 amounted to 3.1 nM. As to “1-(((2S,3S,4S)-3-ethyl-4-fluoro-5-oxotetrahydrofuran-2-yl)methoxy)-8-methyl-8,9-dihydrofuro[2,3-h]isoquinoline-6-carboxamide [Example 52]”, the IC50 worked out at 1.3 nM. The same measure, in the same setting: with `NC(=O)c1cc2cccc(OC[C@@H]3CCC(=O)N3)c2n2ccnc12` [Example 1, (S)-9-((5-oxopyrrolidin-2-yl)methoxy)imidazo[1,2-a]quinoline-4-carboxamide] the figure was 20.6 nM; with `CC[C@@H]1CC(=O)N[C@@H]1COc1cccc2cc(C(N)=O)c3nccn3c12` [Example 2, 9-(((2S,3R)-3-ethyl-5-oxopyrrolidin-2-yl)methoxy)imidazo[1,2-a]quinoline-4-carboxamide], 15 nM; with `CC[C@H]1[C@@H](COc2cccc3cc(C(N)=O)c4nccn4c23)NC(=O)[C@@]1(C)F` [Example 6, 9-(((2S,3 S,4S)-3-ethyl-4-fluoro-4-methyl-5-oxopyrrolidin-2-yl)methoxy)imidazo[1,2-a]quinoline-4-carboxamide], 518 nM.

As to `NC(=O)c1cc2cccc(OC[C@H]3COCC(=O)N3)c2n2ccnc12` [Example 7, (R)-9-((5-oxomorpholin-3-yl)methoxy)imidazo[1,2-a]quinoline-4-carboxamide], the IC50 worked out at 243 nM.

Consider `CC[C@@H]1[C@H](F)C(=O)N[C@@H]1COc1cccc2cc(C(N)=O)c3nc(C(C)(C)O)cn3c12` [Example 13, 9-(((2S,3S,4S)-3-ethyl-4-fluoro-5-oxopyrrolidin-2-yl)methoxy)-2-(2-hydroxypropan-2-yl)imidazo[1,2-a]quinoline-4-carboxamide], for which the IC50 was determined as 1430 nM.

Consider `CC[C@H]1OC(=O)N[C@H]1COc1nccc2cc(C(N)=O)c3nccn3c12` [Example 23, 1-(((4S,5R)-5-ethyl-2-oxooxazolidin-4-yl)methoxy)imidazo[1,2-a][1,7]naphthyridine-6-carboxamide], for which the IC50 amounted to 262 nM.

For the compound `CC[C@@H]1OC(=O)N[C@H]1COc1nccc2cc(C(N)=O)c3nccn3c12` [Example 24, 1-(((4S,5S)-5-ethyl-2-oxooxazolidin-4-yl)methoxy)imidazo[1,2-a][1,7]naphthyridine-6-carboxamide], the IC50 stood at 176 nM.

On to `CC[C@H]1OCC(=O)N[C@H]1COc1nccc2cc(C(N)=O)c3nccn3c12` [Example 25, 1-(((2R,3S)-2-ethyl-5-oxomorpholin-3-yl)methoxy)imidazo[1,2-a][1,7]naphthyridine-6-carboxamide], for which the half-maximal inhibitory concentration (IC50) is 1930 nM. The same measure, in the same setting: next, `CC[C@@H]1OCC(=O)N[C@@H]1COc1nccc2cc(C(N)=O)c3nccn3c12` [Example 26, 1-(((2S,3R)-2-ethyl-5-oxomorpholin-3-yl)methoxy)imidazo[1,2-a][1,7]naphthyridine-6-carboxamide]: 80.4 nM; `NC(=O)c1cc2ccnc(OC[C@@H]3CNC(=O)N3)c2n2ccnc12` [Example 27, (S)-1-((2-oxoimidazolidin-4-yl)methoxy)imidazo[1,2-a][1,7]naphthyridine-6-carboxamide]: 1820 nM; `CC[C@@H]1CC(=O)N[C@@H]1COc1nc(C)cc2cc(C(N)=O)c3nccn3c12` [Example 28, 1-(((2S,3R)-3-ethyl-5-oxopyrrolidin-2-yl)methoxy)-3-methylimidazo[1,2-a][1,7]naphthyridine-6-carboxamide]: 225 nM. Take `CC[C@@H]1CC(=O)N[C@@H]1COc1nc(C)cc2cc(C(N)=O)c3nc(C)cn3c12` [Example 29, 1-(((2S,3R)-3-ethyl-5-oxopyrrolidin-2-yl)methoxy)-3,8-dimethylimidazo[1,2-a][1,7]naphthyridine-6-carboxamide]: the IC50 stood at 601 nM.

In the case of `CC[C@H]1CC(=O)N[C@@H]1COc1nccc2cc(C(N)=O)c3nc(C(F)(F)F)cn3c12` [Example 31, 1-(((2S,3S)-3-ethyl-5-oxopyrrolidin-2-yl)methoxy)-8-(trifluoromethyl)imidazo[1,2-a][1,7]naphthyridine-6-carboxamide], the IC50 was determined as 1060 nM.

With `CC[C@@H]1[C@H](F)C(=O)N(CO)[C@@H]1COc1nccc2cc(C(N)=O)c3nccn3c12` [Example 32], the IC50 is 62 nM.

For `CC[C@@H]1[C@H](F)C(=O)N[C@@H]1COc1cccc2cc(C(N)=O)c3ncnn3c12` [Example 38, 9-(((2S,3S,4S)-3-ethyl-4-fluoro-5-oxopyrrolidin-2-yl)methoxy)-[1,2,4]triazolo[1,5-a]quinoline-4-carboxamide], the IC50 was 60.3 nM.

Regarding `CC[C@@H]1[C@H](F)C(=O)N[C@@H]1COc1cccc2cc(C(N)=O)c3nc(C)nn3c12` [Example 40, 9-(((2S,3S,4S)-3-ethyl-4-fluoro-5-oxopyrrolidin-2-yl)methoxy)-2-methyl-[1,2,4]triazolo[1,5-a]quinoline-4-carboxamide], the IC50 came to 39.1 nM. Still for that read-out and setting: next, `CC[C@@H]1CC(=O)N[C@@H]1COc1cccc2cc(C(N)=O)c3nncn3c12` [Example 41, 9-(((2S,3R)-3-ethyl-5-oxopyrrolidin-2-yl)methoxy)-[1,2,4]triazolo[4,3-a]quinoline-4-carboxamide]: 42.2 nM. Consider `CC[C@H]1CC(=O)N[C@@H]1COc1cccc2cc(C(N)=O)c3nncn3c12` [Example 42, 9-(((2S,3S)-3-ethyl-5-oxopyrrolidin-2-yl)methoxy)-[1,2,4]triazolo[4,3-a]quinoline-4-carboxamide], for which the concentration for half-maximal inhibition (IC50) was 290 nM. Same read-out and setting: with `CC[C@@H]1[C@H](F)C(=O)N[C@@H]1COc1cccc2cc(C(N)=O)c3nncn3c12` [Example 43, 9-(((2S,3S,4S)-3-ethyl-4-fluoro-5-oxopyrrolidin-2-yl)methoxy)-[1,2,4]triazolo[4,3-a]quinoline-4-carboxamide] the figure was 16.2 nM; with `CC[C@@H]1[C@H](F)C(=O)N[C@@H]1COc1cccc2cc(C(N)=O)c3nnnn3c12` [Example 45, 9-(((2S,3S,4S)-3-ethyl-4-fluoro-5-oxopyrrolidin-2-yl)methoxy)tetrazolo[1,5-a]quinoline-4-carboxamide], 70 nM. Regarding `CC[C@@H]1[C@H](F)C(=O)N[C@@H]1COc1nccc2cc(C(N)=O)c3ncnn3c12` [Example 47, 9-(((2S,3S,4S)-3-ethyl-4-fluoro-5-oxopyrrolidin-2-yl)methoxy)-[1,2,4]triazolo[1,5-a][1,7]naphthyridine-4-carboxamide], the IC50 came out at 78.1 nM. On the same count and under the same terms, with `CC[C@@H]1CC(=O)N[C@@H]1COC1=C(F)C=CC2C=C(C(N)=O)c3nccn3C12` (stereo partly drawn) [Example 59, 9-(((2S,3R)-3-ethyl-5-oxopyrrolidin-2-yl)methoxy)-8-fluoro-5a,9a-dihydroimidazo[1,2-a]quinoline-4-carboxamide] the figure was 112 nM; with `CC[C@@H]1CC(=O)N[C@@H]1COC1=CC=CC2C=C(C#N)c3nccn3C12` (stereo partly drawn) [Example 60, 9-(((2S,3R)-3-ethyl-5-oxopyrrolidin-2-yl)methoxy)-5a,9a-dihydroimidazo[1,2-a]quinoline-4-carbonitrile], 350 nM; with `CC[C@@H]1[C@H](F)C(=O)N[C@@H]1COC1=CC=CC2C(NC)=C(C(N)=O)c3nccn3C12` (stereo partly drawn) [Example 61, 9-(((2S,3S,4S)-3-ethyl-4-fluoro-5-oxopyrrolidin-2-yl)methoxy)-5-(methylamino)-5a,9a-dihydroimidazo[1,2-a]quinoline-4-carboxamide], 94.4 nM. Same read-out and setting: next, `CC[C@@H]1[C@H](F)C(=O)N[C@@H]1COc1nccc2cc(C(N)=O)c3c(c12)CC(C)(C)O3` [Example 63, 1-(((2S,3S,4S)-3-ethyl-4-fluoro-5-oxopyrrolidin-2-yl)methoxy)-8,8-dimethyl-8,9-dihydrofuro[2,3-h]isoquinoline-6-carboxamide]: 2.2 nM.

The same test, now with this note: ATP 500 μM; FL-[…] peptide 1.5 μM; IRAK4 0.6 nM; 60 min room temperature; Caliper LABCHIP 3000.
Turning to `CC[C@@H]1CC(=O)N[C@@H]1COc1nccc2cc(C(N)=O)c3nc(C(F)(F)F)cn3c12` [Example 30, 1-(((2S,3R)-3-ethyl-5-oxopyrrolidin-2-yl)methoxy)-8-(trifluoromethyl)imidazo[1,2-a][1,7]naphthyridine-6-carboxamide], the IC50 came to 1720 nM.

A further test concerns Human whole blood, IL-6 levels after TLR2 agonist lipoteichoic acid. As to the kind of experiment: IRAK4 Whole Blood Assay. Format: cell-based. To be noted: compounds 60 minutes at 37° C., lipoteichoic acid 10 μg/mL for 5 hours. The protocol:
IRAK4 Whole Blood Assay Human whole blood containing the anti-coagulant ACD-A was plated in 384-well plate (25 μL/well) and incubated with compounds for 60 minutes at 37° C. in a 5% CO2 incubator. The blood was stimulated with a TLR2 agonist, 10 μg/mL final concentration of lipoteichoic acid (Invivogen, San Diego, CA) in 25 μL RPMI (Gibco) for 5 hours in a 5% CO2 incubator. At the end of the incubation, plates were centrifuged at 2300 rpm for 5 minutes. Supernatants were harvested and analyzed for IL-6 levels by Flow Cytometry beads assay (BD Biosciences, San Jose, CA).
“1-(((2S,3S,4S)-3-ethyl-4-fluoro-5-oxotetrahydrofuran-2-yl)methoxy)-8-methyl-8,9-dihydrofuro[2,3-h]isoquinoline-6-carboxamide [Example 51]” displayed an IC50 of 399 nM.

Take `NC(=O)c1cc2cccc(OC[C@@H]3CCC(=O)N3)c2n2ccnc12` [Example 1, (S)-9-((5-oxopyrrolidin-2-yl)methoxy)imidazo[1,2-a]quinoline-4-carboxamide]: the IC50 worked out at 1420 nM. Take `CC[C@@H]1CC(=O)N[C@@H]1COc1cccc2cc(C(N)=O)c3nccn3c12` [Example 2, 9-(((2S,3R)-3-ethyl-5-oxopyrrolidin-2-yl)methoxy)imidazo[1,2-a]quinoline-4-carboxamide]: the IC50 came out at 306 nM.
